# Assay results taken from US20170008888A1 (KYORIN PHARMACEUTICAL CO., LTD., priority 2014, published 2017).
# pKd: −log10 of the molar value.
# What was measured:
# [1] = system: DNFB-induced ear inflammation mouse model; experiment: DNFB-induced ear inflammation mouse model: cytokine concentrations in ear tissue; type: in vivo, mouse (Balb/c)
# Procedure: In vivo T-cell mediated immune response was examined in a mouse model of CHS using the hapten dinitrofluorobenzene (DNFB) as the induction agent. […] On Days 0 and 1 (sensitization), 20 μL of 0.5% v/v DNFB in acetone:olive oil (4:1) was applied to each hindpaw of 8 week old male mice (Balb/c, Charles River Laboratories; 10 mice per group unless otherwise noted). On Day 5 (elicitation) 10 μL of 0.2% v/v DNFB in acetone: olive oil (4:1) was applied to the dorsal surface of the right ear of each animal; 10 μL of acetone: olive oil (4:1) was applied to the dorsal surface of the left ear as control. Treatments were administered by group as indicated in the table below; on days when DNFB was used, the QD and the morning dose of BID as appropriate were administered 30 minutes-1 hr. prior to DNFB application. […] Approximately 24 hours after elicitation (Day 6), a 7 mm tissue punch from the central portion of both ears was collected and wet weights measured. The primary functional assessment was the difference in wet weights of the right (DNFB) vs. left (vehicle) ears compared to the vehicle treatment (Vehicle1-S) as an indicator of inflammation (Table 17). Ear tissue punches were flash frozen, stored at −70° C. and analyzed for cytokines (see below).
# Cytokine concentrations after DNFB induction and treatment were analyzed in the weighed and flash frozen tissues of the right (DNFB) and left (control) 7 mm ear punches. The ear tissues were stored at −70° C. until prepared for analysis as follows. Left or right ear tissues from the same treatment group were pooled and crushed with mortar and pestle under liquid nitrogen. Tissue representing 7-8 ear punches by weight was homogenized in Buffer A (50 mM HEPES pH 7.4, 100 mM NaCl) containing 1 tablet EDTA-free Protease Inhibitor (Thermo Fisher Scientific, Rockford, Ill.) per 10 mL, 1× Phosphatase Inhibitor Cocktail II (AG Scientific, San Diego, Calif.), and 1 mM PMSF (Sigma, St. Louis, Mo.). Homogenization was performed in Lysing Matrix D tubes (MP Biomedicals, Solon, Ohio), using the FastPrep-24 instrument (MP Biomedicals) at a speed setting of 6 for 4 cycles of 30 seconds, with cooling on ice in between cycles. The tubes were then centrifuged at 1,000×g for 10 min at 4° C. Supernatant was collected and briefly sonicated using the Microson probe sonicator at setting 3 (Misonix, Farmingdale, N.Y.) before centrifuging again at 10,000×g for 10 min at 4° C. The supernatant was ultracentrifuged at 100,000×g for 1 h at 4° C. in the Optima Max-E (Beckman Coulter, Indianapolis, Ind.) to separate soluble and membrane protein fractions. The soluble (supernatant) fraction was collected and protein concentrations determined using the Dc protein kit (Bio-Rad, Hercules, Calif.). Soluble ear proteins were analyzed in triplicate for cytokine response at a final protein concentration of 4 mg/ml using the Bio-Plex Pro Mouse Cytokine 23-Plex panel (Bio-Rad) as per manufacturer's protocols. Magnetic beads were read on the Bio-Plex MAGPIX multiplex reader instrument using the accompanying xPONENT 4.2 acquisition software (Bio-Rad Laboratories, Hercules, Calif.). Data were analyzed via the Bio-Plex Manager software v6.1 (Bio-Rad Laboratories). Response was calculated as a percentage of the cytokine concentrations measured in the right (DNFB) ears of vehicle 1 dosed (S regimen, i.e. dosed Day 0-5) mice (Table 18).
# [2] = molecular target: T1, BRD7 (Homo sapiens, UniProt Q9NPI1); experiment: Bromodomain binding assay: BRD7
# T1 construct: T7 phage strains displaying bromodomains were grown in parallel; made in house; host or cells: E. coli host derived from BL21, infected with T7 phage
# T1 sequence (Q9NPI1 131-235 limits assumed, species assumed): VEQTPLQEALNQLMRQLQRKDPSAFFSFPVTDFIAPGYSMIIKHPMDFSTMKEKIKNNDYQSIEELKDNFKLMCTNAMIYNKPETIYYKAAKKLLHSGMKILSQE
# Procedure: (§1) T7 phage strains displaying bromodomains were grown in parallel in 24-well blocks in an E. coli host derived from the BL21 strain. E. coli were grown to log-phase and infected with T7 phage from a frozen stock (multiplicity of infection=0.4) and incubated with shaking at 32° C. until lysis (90-150 minutes). The lysates were centrifuged (5,000×g) and filtered (0.2 μm) to remove cell debris. […] The liganded beads were blocked with excess biotin and washed with blocking buffer (SeaBlock (Pierce), 1% BSA, 0.05 Tween 20, 1 mM DTT) to remove unbound ligand and to reduce non-specific phage binding. […] Test compounds (T62 and 46) were prepared as 1000× stocks in 100% DMSO and subsequently diluted 1:10 in monoethylene glycol (MEG) to create stocks at 100× the screening concentration (resulting stock solution is 10% DMSO/90% MEG). The compounds were then diluted directly into the assays such that the final concentration of DMSO and MEG were 0.1% and 0.9%, respectively. All reactions were performed in polystyrene 96-well plates in a final volume of 0.135 ml. […] The bromodomain concentration in the eluates was measured by qPCR. Compounds were assayed for binding activity against a panel of 40 bromodomain-containing proteins.
# [3] = molecular target: T2, panel of 40 bromodomain-containing proteins (Homo sapiens, UniProt Q09472); experiment: Bromodomain binding assay (T7 phage, qPCR): further proteins of the panel; conditions: EP300
# T2 construct: T7 phage strains displaying bromodomains were grown in parallel; made in house; host or cells: E. coli host derived from BL21, infected with T7 phage
# T2 sequence (Q09472 1045-1161): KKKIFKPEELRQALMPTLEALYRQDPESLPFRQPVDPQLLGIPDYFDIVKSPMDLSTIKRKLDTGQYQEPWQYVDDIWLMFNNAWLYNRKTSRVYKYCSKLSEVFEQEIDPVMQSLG
# Procedure: as §1
# [4] = molecular target: T3, panel of 40 bromodomain-containing proteins (Homo sapiens, UniProt Q92793); experiment: as above; conditions: CREBBP
# T3 construct: T7 phage strains displaying bromodomains were grown in parallel; made in house; host or cells: E. coli host derived from BL21, infected with T7 phage
# T3 sequence (Q92793 1081-1197): as the sequence (Q09472 1045-1161) above, with K1R, S51N, I77V, Y97F, S102A counted along it
# Procedure: as §1
smiles,measurement,setting,value
"CCOc1cc(C(=O)N2CCC(N3CCCC3)CC2)ccc1Nc1cc2c(cn1)N(C)C(=O)c1ccccc1N2C [Compound 46, 3-(2-Ethoxy-4-(4-(pyrrolidin-1-yl)piperidine-1-carbonyl)phenylamino)-5,11-dimethyl-5H-benzo[e]pyrido[3,4-b][1,4]diazepin-10(11H)-one]",G-CSF: Mean % Cytokine Concentration in DNFB Treated Right Ears versus Vehicle 1-Dosed (S) Mice,"[1]; 25 mg/kg, regimen E",58%
same,GM-CSF: Mean % Cytokine Concentration in DNFB Treated Right Ears versus Vehicle 1-Dosed (S) Mice,"[1]; 25 mg/kg, regimen E",29%
same,IFN-γ: Mean % Cytokine Concentration in DNFB Treated Right Ears versus Vehicle 1-Dosed (S) Mice,"[1]; 25 mg/kg, regimen E",51%
same,IL-1α: Mean % Cytokine Concentration in DNFB Treated Right Ears versus Vehicle 1-Dosed (S) Mice,"[1]; 25 mg/kg, regimen E",128%
same,IL-1β: Mean % Cytokine Concentration in DNFB Treated Right Ears versus Vehicle 1-Dosed (S) Mice,"[1]; 25 mg/kg, regimen E",57%
same,IL-3: Mean % Cytokine Concentration in DNFB Treated Right Ears versus Vehicle 1-Dosed (S) Mice,"[1]; 25 mg/kg, regimen E",75%
same,IL-5: Mean % Cytokine Concentration in DNFB Treated Right Ears versus Vehicle 1-Dosed (S) Mice,"[1]; 25 mg/kg, regimen E",63%
same,IL-6: Mean % Cytokine Concentration in DNFB Treated Right Ears versus Vehicle 1-Dosed (S) Mice,"[1]; 25 mg/kg, regimen E",53%
same,IL-12 (p40): Mean % Cytokine Concentration in DNFB Treated Right Ears versus Vehicle 1-Dosed (S) Mice,"[1]; 25 mg/kg, regimen E",81%
same,IL-13: Mean % Cytokine Concentration in DNFB Treated Right Ears versus Vehicle 1-Dosed (S) Mice,"[1]; 25 mg/kg, regimen E",79%
same,IL-17A: Mean % Cytokine Concentration in DNFB Treated Right Ears versus Vehicle 1-Dosed (S) Mice,"[1]; 25 mg/kg, regimen E",53%
same,KC: Mean % Cytokine Concentration in DNFB Treated Right Ears versus Vehicle 1-Dosed (S) Mice,"[1]; 25 mg/kg, regimen E",30%
same,MCP-1: Mean % Cytokine Concentration in DNFB Treated Right Ears versus Vehicle 1-Dosed (S) Mice,"[1]; 25 mg/kg, regimen E",37%
same,MIP-1α: Mean % Cytokine Concentration in DNFB Treated Right Ears versus Vehicle 1-Dosed (S) Mice,"[1]; 25 mg/kg, regimen E",62%
same,MIP-1β: Mean % Cytokine Concentration in DNFB Treated Right Ears versus Vehicle 1-Dosed (S) Mice,"[1]; 25 mg/kg, regimen E",44%
same,RANTES: Mean % Cytokine Concentration in DNFB Treated Right Ears versus Vehicle 1-Dosed (S) Mice,"[1]; 25 mg/kg, regimen E",55%
same,TNF-α: Mean % Cytokine Concentration in DNFB Treated Right Ears versus Vehicle 1-Dosed (S) Mice,"[1]; 25 mg/kg, regimen E",67%
same,G-CSF: Mean % Cytokine Concentration in DNFB Treated Right Ears versus Vehicle 1-Dosed (S) Mice,"[1]; 60 mg/kg, regimen E",36%
same,GM-CSF: Mean % Cytokine Concentration in DNFB Treated Right Ears versus Vehicle 1-Dosed (S) Mice,"[1]; 60 mg/kg, regimen E",0%
same,IFN-γ: Mean % Cytokine Concentration in DNFB Treated Right Ears versus Vehicle 1-Dosed (S) Mice,"[1]; 60 mg/kg, regimen E",25%
same,IL-1α: Mean % Cytokine Concentration in DNFB Treated Right Ears versus Vehicle 1-Dosed (S) Mice,"[1]; 60 mg/kg, regimen E",120%
same,IL-1β: Mean % Cytokine Concentration in DNFB Treated Right Ears versus Vehicle 1-Dosed (S) Mice,"[1]; 60 mg/kg, regimen E",32%
same,IL-3: Mean % Cytokine Concentration in DNFB Treated Right Ears versus Vehicle 1-Dosed (S) Mice,"[1]; 60 mg/kg, regimen E",53%
same,IL-5: Mean % Cytokine Concentration in DNFB Treated Right Ears versus Vehicle 1-Dosed (S) Mice,"[1]; 60 mg/kg, regimen E",23%
same,IL-6: Mean % Cytokine Concentration in DNFB Treated Right Ears versus Vehicle 1-Dosed (S) Mice,"[1]; 60 mg/kg, regimen E",31%
same,IL-12 (p40): Mean % Cytokine Concentration in DNFB Treated Right Ears versus Vehicle 1-Dosed (S) Mice,"[1]; 60 mg/kg, regimen E",64%
same,IL-13: Mean % Cytokine Concentration in DNFB Treated Right Ears versus Vehicle 1-Dosed (S) Mice,"[1]; 60 mg/kg, regimen E",61%
same,IL-17A: Mean % Cytokine Concentration in DNFB Treated Right Ears versus Vehicle 1-Dosed (S) Mice,"[1]; 60 mg/kg, regimen E",42%
same,KC: Mean % Cytokine Concentration in DNFB Treated Right Ears versus Vehicle 1-Dosed (S) Mice,"[1]; 60 mg/kg, regimen E",21%
same,MCP-1: Mean % Cytokine Concentration in DNFB Treated Right Ears versus Vehicle 1-Dosed (S) Mice,"[1]; 60 mg/kg, regimen E",31%
same,MIP-1α: Mean % Cytokine Concentration in DNFB Treated Right Ears versus Vehicle 1-Dosed (S) Mice,"[1]; 60 mg/kg, regimen E",42%
same,MIP-1β: Mean % Cytokine Concentration in DNFB Treated Right Ears versus Vehicle 1-Dosed (S) Mice,"[1]; 60 mg/kg, regimen E",31%
same,RANTES: Mean % Cytokine Concentration in DNFB Treated Right Ears versus Vehicle 1-Dosed (S) Mice,"[1]; 60 mg/kg, regimen E",37%
same,TNF-α: Mean % Cytokine Concentration in DNFB Treated Right Ears versus Vehicle 1-Dosed (S) Mice,"[1]; 60 mg/kg, regimen E",48%
same,G-CSF: Mean % Cytokine Concentration in DNFB Treated Right Ears versus Vehicle 1-Dosed (S) Mice,"[1]; 60 mg/kg, regimen S",27%
same,GM-CSF: Mean % Cytokine Concentration in DNFB Treated Right Ears versus Vehicle 1-Dosed (S) Mice,"[1]; 60 mg/kg, regimen S",0%
same,IFN-γ: Mean % Cytokine Concentration in DNFB Treated Right Ears versus Vehicle 1-Dosed (S) Mice,"[1]; 60 mg/kg, regimen S",22%
same,IL-1α: Mean % Cytokine Concentration in DNFB Treated Right Ears versus Vehicle 1-Dosed (S) Mice,"[1]; 60 mg/kg, regimen S",88%
same,IL-1β: Mean % Cytokine Concentration in DNFB Treated Right Ears versus Vehicle 1-Dosed (S) Mice,"[1]; 60 mg/kg, regimen S",23%
same,IL-3: Mean % Cytokine Concentration in DNFB Treated Right Ears versus Vehicle 1-Dosed (S) Mice,"[1]; 60 mg/kg, regimen S",45%
same,IL-5: Mean % Cytokine Concentration in DNFB Treated Right Ears versus Vehicle 1-Dosed (S) Mice,"[1]; 60 mg/kg, regimen S",5%
same,IL-6: Mean % Cytokine Concentration in DNFB Treated Right Ears versus Vehicle 1-Dosed (S) Mice,"[1]; 60 mg/kg, regimen S",20%
same,IL-12 (p40): Mean % Cytokine Concentration in DNFB Treated Right Ears versus Vehicle 1-Dosed (S) Mice,"[1]; 60 mg/kg, regimen S",49%
same,IL-13: Mean % Cytokine Concentration in DNFB Treated Right Ears versus Vehicle 1-Dosed (S) Mice,"[1]; 60 mg/kg, regimen S",47%
same,IL-17A: Mean % Cytokine Concentration in DNFB Treated Right Ears versus Vehicle 1-Dosed (S) Mice,"[1]; 60 mg/kg, regimen S",38%
same,KC: Mean % Cytokine Concentration in DNFB Treated Right Ears versus Vehicle 1-Dosed (S) Mice,"[1]; 60 mg/kg, regimen S",19%
same,MCP-1: Mean % Cytokine Concentration in DNFB Treated Right Ears versus Vehicle 1-Dosed (S) Mice,"[1]; 60 mg/kg, regimen S",27%
same,MIP-1α: Mean % Cytokine Concentration in DNFB Treated Right Ears versus Vehicle 1-Dosed (S) Mice,"[1]; 60 mg/kg, regimen S",29%
same,MIP-1β: Mean % Cytokine Concentration in DNFB Treated Right Ears versus Vehicle 1-Dosed (S) Mice,"[1]; 60 mg/kg, regimen S",24%
same,RANTES: Mean % Cytokine Concentration in DNFB Treated Right Ears versus Vehicle 1-Dosed (S) Mice,"[1]; 60 mg/kg, regimen S",27%
same,TNF-α: Mean % Cytokine Concentration in DNFB Treated Right Ears versus Vehicle 1-Dosed (S) Mice,"[1]; 60 mg/kg, regimen S",39%
same,pKd,[2],< 4.70
same,Kd,[3],7500 nM
same,Kd,[4],3300 nM
